Source: US6593480B2 (Abbott Laboratories, priority 1999, dated 2003)

What follows are compounds tested against T1, progesterone receptor (PR) (Homo sapiens, UniProt P06401) (assay: Radioligand binding assay with progesterone receptor cytosol (similar protocol)). Details: not given.
T1 sequence (P06401 1-933): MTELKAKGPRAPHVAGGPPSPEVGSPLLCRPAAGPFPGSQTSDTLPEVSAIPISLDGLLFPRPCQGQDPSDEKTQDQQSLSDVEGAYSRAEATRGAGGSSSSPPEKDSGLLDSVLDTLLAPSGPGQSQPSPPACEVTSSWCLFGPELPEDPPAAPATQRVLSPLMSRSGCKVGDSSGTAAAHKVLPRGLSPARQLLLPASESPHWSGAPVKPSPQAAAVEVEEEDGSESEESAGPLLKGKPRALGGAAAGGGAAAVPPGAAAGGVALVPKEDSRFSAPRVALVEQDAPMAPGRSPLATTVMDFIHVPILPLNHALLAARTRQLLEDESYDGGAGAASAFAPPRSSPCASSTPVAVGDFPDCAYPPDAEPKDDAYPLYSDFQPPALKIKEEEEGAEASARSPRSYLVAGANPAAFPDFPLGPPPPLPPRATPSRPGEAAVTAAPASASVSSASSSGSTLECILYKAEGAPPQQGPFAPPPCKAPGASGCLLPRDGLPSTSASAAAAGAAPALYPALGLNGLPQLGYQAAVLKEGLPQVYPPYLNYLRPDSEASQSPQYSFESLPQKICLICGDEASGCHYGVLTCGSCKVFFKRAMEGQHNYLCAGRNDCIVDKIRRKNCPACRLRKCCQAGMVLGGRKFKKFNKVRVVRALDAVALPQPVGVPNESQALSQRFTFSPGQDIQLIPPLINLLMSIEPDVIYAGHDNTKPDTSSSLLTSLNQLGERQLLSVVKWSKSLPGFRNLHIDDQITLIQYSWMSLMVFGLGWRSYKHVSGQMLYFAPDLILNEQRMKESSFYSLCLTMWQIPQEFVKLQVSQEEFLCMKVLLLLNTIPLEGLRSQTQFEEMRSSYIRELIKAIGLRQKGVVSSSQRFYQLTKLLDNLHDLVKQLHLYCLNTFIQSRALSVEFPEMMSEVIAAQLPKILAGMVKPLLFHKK
Description: Methods for Radioligand Binding Studies with Human Glucocorticoid and Progesterone Receptor Cytosol
A similar protocol was employed to measure affinity of the compounds of the present invention for progesterone receptor (PR).

| Structure (SMILES) | IC50 [µM] |
| --- | --- |
| C=CCOc1cccc(C2Oc3cccc(OC(F)F)c3-c3ccc(NS(C)(=O)=O)cc32)c1 (centres unmarked) [Example 116, N-[6-[3-(allyloxy)phenyl]-1-(difluoromethoxy)-6H-benzo[c]chromen-8-yl]methanesulfonamide] | 1.05 |
| COc1cccc(C2Oc3cccc(OC(F)F)c3-c3ccc(NS(C)(=O)=O)cc32)c1 (centres unmarked) [Example 108, N-[1-(difluoromethoxy)-6-(3-methoxyphenyl)-6H-benzo[c]chromen-8-yl]methanesulfonamide] | 0.17 |
| COc1cccc2c1-c1ccc(NS(C)(=O)=O)cc1C(c1cccc(C#Cc3ccccc3)c1)O2 (centres unmarked) [Example 91, N-{1-methoxy-6-[3-(phenylethynyl)phenyl]-6H-benzo[c]chromen-8-yl}methanesulfonamide] | > 1 |
| COc1cccc2c1-c1ccc(NS(C)(=O)=O)cc1C(c1cccc(/C=C/c3ccccc3)c1)O2 (centres unmarked) [Example 99, N-(1-methoxy-6-{3-[(E)-2-phenylethenyl]phenyl}-6H-benzo[c]chromen-8-yl)methanesulfonamide] | > 1 |
| COc1cccc(-c2cccc(C3Oc4cccc(OC)c4-c4ccc(NS(C)(=O)=O)cc43)c2)c1 (centres unmarked) [Example 124, N-[1-methoxy-6-(3′-methoxyl[1,1′-biphenyl]-3-yl)-6H-benzo[c]chromen-8-yl]methanesulfonamide] | > 10 |
| C=CCN(C)c1cccc(C2Oc3cccc(OC)c3-c3ccc(NS(C)(=O)=O)cc32)c1 (centres unmarked) [Example 80, N-(6-{3-[allyl(methyl)amino]phenyl}-1-methoxy-6H-benzo[c]chromen-8-yl)methanesulfonamide] | 0.62 |
| CCS(=O)(=O)N(C)c1cccc(C2Oc3cccc(OC)c3-c3ccc(NS(C)(=O)=O)cc32)c1 (centres unmarked) [Example 131, N-(3-{1-methoxy-8-[(methylsulfonyl)amino]-6H-benzo[c]chromen-6-yl}phenyl)-N-methylethanesulfonamide] | > 10 |
| COc1cccc2c1-c1ccc(NS(=O)(=O)c3ccccc3F)cc1C(c1ccccc1)O2 (centres unmarked) [Example 18] | > 10 |
| COc1cccc2c1-c1ccc(NS(C)(=O)=O)cc1C(c1cccc(N(C)S(=O)(=O)c3ccc(Br)cc3)c1)O2 (centres unmarked) [Example 152, 4-bromo-N-(3-{1-methoxy-8-[(methylsulfonyl)amino]-6H-benzo[c]chromen-6-yl}phenyl)-N-methylbenzenesulfonamide] | ≥ 10 |
| COCCCc1cccc(C2Oc3cccc(OC(F)F)c3-c3ccc(NS(C)(=O)=O)cc32)c1 (centres unmarked) [Example 117, N-{1-(difluoromethoxy)-6-[3-(3-methoxypropyl)phenyl]-6H-benzo[c]chromen-8-yl}methanesulfonamide] | 0.43 |
| COc1ccc(Br)c2c1-c1ccc(NS(C)(=O)=O)cc1C(c1ccccc1)O2 (centres unmarked) [Example 154, N-(4-bromo-1-methoxy-6-phenyl-6H-benzo[c]chromen-8-yl)methanesulfonamide] | 0.68 |
| CS(=O)(=O)Nc1ccc2c(c1)C(c1cccc(CCCCc3ccccc3)c1)Oc1cccc(OC(F)F)c1-2 (centres unmarked) [Example 136, N-{1-(difluoromethoxy)-6-[3-(4-phenylbutyl)phenyl]-6H-benzo[c]chromen-8-yl}methanesulfonamide] | > 10 |
| COc1cccc2c1-c1ccc(NS(C)(=O)=O)cc1C(c1cccc(-c3ccc(Cl)cc3)c1)O2 (centres unmarked) [Example 126, N-[6-(4′-chloro[1,1′-biphenyl]-3-yl)-1-methoxy-6H-benzo[c]chromen-8-yl]methanesulfonamide] | > 10 |
| CS(=O)(=O)Nc1ccc2c(c1)C(c1ccc(Br)s1)Oc1cccc(OC(F)F)c1-2 (centres unmarked) [Example 96, N-{6-(5-bromo-2-thienyl)-1-(difluoromethoxy)-6H-benzo[c]chromen-8-yl}methanesulfonamide] | 0.12 |
| COc1cccc2c1-c1ccc(NS(C)(=O)=O)cc1C(c1cccc(-c3ccc(C)cc3)c1)O2 (centres unmarked) [Example 123, N-[1-methoxy-6-(4′-methyl[1,1′-biphenyl]-3-yl)-6H-benzo[c]chromen-8-yl]methanesulfonamide] | > 10 |
| CS(=O)(=O)Nc1ccc2c(c1)C(c1ccc(Br)cc1)Oc1cccc(OC(F)F)c1-2 (centres unmarked) [Example 109, N-[6-(4-bromophenyl)-1-(difluoromethoxy)-6H-benzo[c]chromen-8-yl]methanesulfonamide] | 0.25 |
| COc1cccc2c1-c1ccc(NS(C)(=O)=O)cc1C(c1ccc(C#CCCCO)s1)O2 (centres unmarked) [Example 102, N-{6-[5-(5-hydroxy-1-pentynyl)-2-thienyl]-1-methoxy-6H-benzo[c]chromen-8-yl}methanesulfonamide] | > 1 |
| COc1cccc2c1-c1ccc(NS(C)(=O)=O)cc1C(c1cccc(Br)c1)O2 (centres unmarked) [Example 82, N-[6-(3-bromophenyl)-1-methoxy-6H-benzo[c]chromen-8-yl]methanesulfonamide] | 0.3 |
| C=CCOc1ccc(C2Oc3cccc(OC)c3-c3ccc(NS(C)(=O)=O)cc32)cc1 (centres unmarked) [Example 32, (1methoxy-6-(4-allyloxy)phenyl-6H-dibenzo(b,d)pyran-8-yl)-methanesulfonamide] | > 10 |

These compounds were tested against T2, Human glucocorticoid receptors (Homo sapiens, UniProt P04150) (assay: Radioligand filter binding assay, displacement of 3(H)-dexamethasone from human glucocorticoid receptor cytosol). Details: 1.7 μM test compound; inhibition of 3(H)-dex binding to hGR.
T2 construct: made in house; host or cells: Sf9 insect cells, recombinant baculovirus (BAC-TO-BAC)
T2 sequence (P04150 1-777): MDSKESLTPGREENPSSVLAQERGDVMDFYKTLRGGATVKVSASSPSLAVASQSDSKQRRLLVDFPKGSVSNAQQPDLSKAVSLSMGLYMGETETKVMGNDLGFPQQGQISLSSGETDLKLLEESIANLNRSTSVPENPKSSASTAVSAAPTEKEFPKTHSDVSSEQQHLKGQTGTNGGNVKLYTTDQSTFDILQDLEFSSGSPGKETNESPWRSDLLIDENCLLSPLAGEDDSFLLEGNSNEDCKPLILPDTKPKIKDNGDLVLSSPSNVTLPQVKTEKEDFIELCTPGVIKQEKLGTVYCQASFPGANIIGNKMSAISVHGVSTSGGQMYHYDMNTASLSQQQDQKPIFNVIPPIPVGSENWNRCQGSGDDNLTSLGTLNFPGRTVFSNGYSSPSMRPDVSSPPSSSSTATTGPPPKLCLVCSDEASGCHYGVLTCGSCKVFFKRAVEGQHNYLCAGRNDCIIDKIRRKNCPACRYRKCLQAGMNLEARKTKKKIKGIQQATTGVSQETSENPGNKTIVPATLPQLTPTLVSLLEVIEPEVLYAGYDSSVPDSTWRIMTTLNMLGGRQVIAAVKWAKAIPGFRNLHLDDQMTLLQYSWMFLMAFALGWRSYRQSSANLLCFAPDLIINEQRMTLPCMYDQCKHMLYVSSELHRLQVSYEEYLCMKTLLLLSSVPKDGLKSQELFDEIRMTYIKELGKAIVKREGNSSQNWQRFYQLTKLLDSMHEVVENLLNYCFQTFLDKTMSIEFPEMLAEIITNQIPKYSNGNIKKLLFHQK
Description: Dexamethasone hereafter referred to as dex was purchased from SIGMA. […] Human glucocorticoid receptors were extracted from Sf9 cells infected with a recombinant baculovirus transfer vector containing the cloned hGR genes. […] The recombinant baculovi, uses expressing hGR were amplified and used to infect Sf9 cells. Infected cells were harvested 48 hrs post infection. […] The concentration of hGR in the extract was measured as specific ^3(H)-dex binding with the G25-assay as described in J. Steroid Biochem. Molec. […] The extract was aliquoted and stored at −70° C.
The filter binding assay: Dilution series of the test compounds and dex as reference were made from 10 mM (1 mM dex) stock solutions in DMSO. 10 μl of the dilutions was added in duplicates to the wells. The cell extracts were diluted 10 fold in EPMo +MTG buffer (1 mM EDTA, HPO4 20 mM (pH8), 6 mM MTG). […] 110 μl of the diluted ^3(H)-dex were added to the wells. The final concentration of hGR in the experiment was estimated to 1 nM. All preparations were made in ambient temperature (20-25° C.) on ice and with +4° C. temperated buffers. The plates were incubated over night at +4° C. (15-20hrs).
The incubation was stopped by filtration through GF/B filter on the Tomtec Cellharvester. The filtration on the Tomtec Cellharvester was programmed as follows: 1) Preparation before filtration with EP buffer (1 mM EDTA 20 mM HPO4 (pH8)) 2×(Wash/Asp 0.6 sec., Asp 0.5 sec.); 2) Prewet of GF/B filter with EP+PEI buffer (EP buffer, 0.3% Polyesthylenimine) (Asp 0.8 sec.). 3) Filtration/harvesting of the 96-well incubation plate 3×(Wash/Asp 0.6 sec., Asp 0.5 sec.). The GF/B filter was dried for at least 1 hr at 65° C. A MeltiLex scintillation wax was melted onto the filter with the Microsealer. The filter was placed in a samplebag, which was thereafter trimmed with scissors to fit the filter cassette. The cassette were placed in the Microbeta and measured for 1 min/position, returning ccpm (conrected counts per minute).
The Microbeta-instrument generates the mean cpm (counts per minute) value/minute and corrects for individual variations between the detectors thus generating corrected cpm values.

| Structure (SMILES) | GR BINDING (% Inhibition @ 1.7 μM) [%] |
| --- | --- |
| CCS(=O)(=O)Nc1ccc2c(c1)C(c1ccccc1)Oc1cccc(OC)c1-2 (centres unmarked) [Example 7, (1-methoxy-6-phenyl-6H-dibenzo(b,d)pyran-8-yl)ethanesulfonamide] | 90.6 |
| C=CCCCc1cccc(C2Oc3cccc(OC)c3-c3ccc(NS(C)(=O)=O)cc32)c1 (centres unmarked) [Example 111, N-{1-nethoxy-6-[3-(4-pentenyl)phenyl]-6H-benzo[c]chromen-8-yl}methanesulfonamide] | 87.4 |
| COCCNC(=O)c1cccc(C2Oc3cccc(OC)c3-c3ccc(NS(C)(=O)=O)cc32)c1 (centres unmarked) [Example 64, (1-methoxy-6-(3-(2-methoxyethyl)aminocarbonyl)phenyl-6H-dibenzo(b,d)pyran-8-yl)-methanesulfonamide] | 44.3 |

Same assay, conditions: 1.7 μM test compound; inhibition of 3(H)-dex binding to hGR; read-out: GR BINDING (% Inhibition @ 1.7 μM)

| Structure (SMILES) | inhibition at 1.7 µM [%] |
| --- | --- |
| CCCC1Oc2cccc(OC(F)F)c2-c2ccc(NS(C)(=O)=O)cc21 (racemic) [Example 27] | 86.8 |
| COCCCCCCc1cccc(C2Oc3cccc(OC(F)F)c3-c3ccc(NS(C)(=O)=O)cc32)c1 (centres unmarked) [Example 141, N-{1-(difluoromethoxy)-6-[3-(6-methoxyhexyl)phenyl]-6H-benzo[c]chromen-8-yl}methanesulfonamide] | 93.6 |
| COc1cc(C)cc2c1-c1ccc(NS(C)(=O)=O)cc1C(c1ccccc1)O2 (centres unmarked) [Example 67, (1-methoxy-3-methyl-6-phenyl-6H-dibenzo(b,d)pyran-8-yl)methanesulfonamide] | 49.3 |
| CCOC(=O)C(C)CCCc1cccc(C2Oc3cccc(OC(F)F)c3-c3ccc(NS(C)(=O)=O)cc32)c1 (centres unmarked) [Example 135, ethyl 5-(3-{1-(difluoromethoxy)-8-[(methylsulfonyl)amino]-6H-benzo[c]chromen-6-yl}phenyl)-2-methylpentanoate] | 83.7 |
| CCOC(=O)CCC1Oc2cccc(OC)c2-c2ccc(NS(C)(=O)=O)cc21 (centres unmarked) [Example 46] | 84.6 |
| COc1cccc2c1-c1ccc(NS(C)(=O)=O)cc1C(Cc1cc(F)cc(F)c1)O2 (centres unmarked) [Example 85, N-[6-(3,5-difluorobenzyl)-1-methoxy-6H-benzo[c]chromen-8-yl]methanesulfonamide] | 81.6 |
| CC#Cc1cccc2c1-c1ccc(NS(C)(=O)=O)cc1C(c1ccccc1)O2 (racemic) [Example 39] | 90.6 |
